# Literature values as cited in patent publication US20110052580A1, “USE OF PICOPLATIN AND BEVACIZUMAB TO TREAT COLORECTAL CANCER” (Poniard Pharmaceuticals, Inc., priority 2008, published 2011).
# Columns and labels:
# [1] = tested on: metastatic colorectal cancer (MCRC); conditions: single agent therapy
# [2] = tested on: xenotransplant models of colon cancer; conditions: mouse, in vivo
# [3] = tested on: human vascular endothelial growth factor (VEGF)
# human vascular endothelial growth factor (VEGF), sequence (P15692 207-311 limits assumed): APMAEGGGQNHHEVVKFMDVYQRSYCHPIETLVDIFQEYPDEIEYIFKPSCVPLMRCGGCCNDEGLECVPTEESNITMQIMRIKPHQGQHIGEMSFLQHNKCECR
Molecule,Median survival [1],"Progression-free survival, median [1]",Response rate [1],Effect on metastatic disease progression [2],Effect on microvascular growth [2],Binding to and inhibition of VEGF [3]
O=C1[O][Pt]2([NH][C@@H]3CCCC[C@H]3[NH]2)[O]C1=O [oxaliplatin],~14.5 months,4.0 months,12%,,,
CCc1c2c(nc3ccc(OC(=O)N4CCC(N5CCCCC5)CC4)cc13)-c1cc3c(c(=O)n1C2)COC(=O)[C@]3(O)CC [irinotecan],~12 months,4.3 months,18%,,,
bevacizumab: recombinant humanized monoclonal IgGl antibody that binds to and inhibits human vascular endothelial growth factor (VEGF),,,,inhibition of metastatic disease progression,reduction of microvascular growth,binds to and inhibits the biologic activity of human vascular endothelial growth factor (VEGF)
